Measurements: patent US20090197916A1, “SOLUBLE EPOXIDE HYDROLASE INHIBITORS FOR TREATMENT OF METABOLIC SYNDROME AND RELATED DISORDERS” (Arete Therapeutics, Inc, priority 2007, published 2009)
Each block holds one molecule with its values, some of them ahead of it.

How the values were obtained:
sEH = molecular target: T1, sEH (Homo sapiens, UniProt P34913); assay: sEH inhibition, fluorescent assay with CMNPC substrate (percent inhibition and IC50); assay type: biochemical; conditions: for IC50: procedure similar to the percent inhibition procedure
T1 sequence (P34913 1-555): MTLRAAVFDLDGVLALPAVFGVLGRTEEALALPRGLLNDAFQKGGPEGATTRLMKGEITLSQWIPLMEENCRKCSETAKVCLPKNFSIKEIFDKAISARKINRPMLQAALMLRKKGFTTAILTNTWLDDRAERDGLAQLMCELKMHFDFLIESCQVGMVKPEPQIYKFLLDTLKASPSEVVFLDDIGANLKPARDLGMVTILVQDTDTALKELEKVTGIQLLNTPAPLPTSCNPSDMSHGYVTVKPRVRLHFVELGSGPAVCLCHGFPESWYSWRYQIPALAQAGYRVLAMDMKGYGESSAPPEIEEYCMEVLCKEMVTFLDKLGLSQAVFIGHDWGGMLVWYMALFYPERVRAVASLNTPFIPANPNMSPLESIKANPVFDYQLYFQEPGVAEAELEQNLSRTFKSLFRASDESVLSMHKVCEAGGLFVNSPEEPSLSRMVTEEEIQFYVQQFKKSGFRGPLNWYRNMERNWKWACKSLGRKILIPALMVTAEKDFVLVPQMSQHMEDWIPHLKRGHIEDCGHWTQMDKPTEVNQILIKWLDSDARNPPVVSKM
Method: The substrate for the reaction was:
Therefore, well A2 would refer to a well in the first row and second column of the plate.
In a black 96 well plate, all the wells are filled with 150 μL of buffer A (Buffer A: Bis/Tris HCl, 25 mM, pH 7.0 plus 0.1 mg/mL BSA). DMSO (2 microliters) was added in well A2 and A3, and then was added 2 μL of inhibitor solution in A1 and A4 through A12. […] The plate was incubated for 5 minutes in the plate reader at 30° C. During incubation, the working solution of substrate was prepared by mixing 3.68 mL of buffer A with 266 μL of 0.5 mM substrate solution. At t=0, 30 μL of working substrate solution was added and readings were started ([S]final: 5 μM).

[1] = tested on: wild-type mice on high-fat, high-fructose diet (HF) or standard chow (NC); assay: Metabolic Syndrome Model 2: diet induced obesity mouse model; assay type: in vivo; conditions: for weight gain, HF-fed animals / total plasma cholesterol / glucose tolerance (GTT) / statistical significance of attenuated weight gain: HF diet; for weight gain, HF-fed animals: 60 mg/kg twice daily (Losartan 10 mg/kg/day in drinking water); for weight gain, HF-fed animals / total plasma cholesterol / glucose tolerance (GTT): vs vehicle; for total plasma cholesterol: 60 mg/kg twice daily, 4 weeks; for glucose tolerance (GTT): after 4 weeks of dosing 60 mg/kg twice daily; for statistical significance of attenuated weight gain: from second week of dose administration
Excerpt: Seven groups of 10 wild-type mice were entered onto the study. Five groups were placed on an ad libitum high-fat, high-fructose diet (HF); two groups were fed ad libitum with standard rodent chow and water (NC). Animals were maintained on the respective diet for the entire 12 weeks of the study. […] Losartan (Cozaar®) is a compound approved by the FDA for the treatment of hypertension, reducing the risk of stroke in a patient with hypertension and left ventricular hypertrophy, and treatment of diabetic nephropathy with an elevated serum […] and proteinuria in patients with type 2 diabetes and a history of hypertension.
Glucose tolerance tests (GTTs) were performed in Week 7 (prior to the start of dosing) and Week 12 (after 4 weeks of dosing). Body weights were recorded semi-weekly throughout the study whereas chow consumption and liquid intake were recorded weekly. Plasma was collected from untreated (Week 7, prior to the start of dosing) and treated (at the end of in-life) animals and submitted for the determination of plasma cholesterol. At the end of the in-life period, animals were sacrificed after terminal bleeds and discarded; no necropsies were performed.

[2] = tested on: Zucker diabetic fatty rats (ZDF); assay: Model 4: Zucker diabetic fatty rats; assay type: in vivo; conditions: daily dose of 100 mg/kg for four weeks, vs vehicle
Method: All protocols were approved by the institutional animal care and use committee at Arête Therapeutics. Eight weeks old male Zucker diabetic fatty rats (ZDF) (Charles River Laboratory, Hollister, Calif.) with a 270 g body weight on average used in this study were fed a normal chow. Baseline blood pressure and body weight were measured before surgery. Animals were anesthetized by inhalation of 2% isoflurane. The animals were randomly divided into 2 groups; […] Four animals were assigned to the vehicle group and three to the Compound 2 group. After 4 weeks of treatment, systolic blood pressure was measured in conscious mice using a tail-cuff system (Kent Scientific Corporation, Torrington, Conn.), and the animals were euthanized. Blood samples were collected via cardiac puncture for the measurement of a serum cholesterol profile (IDEXX Veterinary Services, West Sacramento, Calif.) and tissues were removed for analysis. All results are presented as the mean and standard error (SEM). Comparison between the vehicle and Compound 2 treatment groups was performed using Student's t test.

[3] = tested on: male C57Bl/6 mice on high-fat, high-fructose diet; assay: Metabolic Syndrome Model 1: diet induced obesity mouse model; assay type: in vivo
Method: A diet induced obesity mouse model was used to evaluate the efficacy of the sEH inhibitor 1-[1-(methylsulfonyl)piperidin-4-yl]-3-(adamant-1-yl)urea (Compound 5) for the treatment of metabolic syndrome and the adverse conditions related thereto.
The study was performed using 7-8 week old male C57Bl/6 mice. The mice were acclimated a minimum of five days prior to the start of study and were housed five per cage in microisolators in a 12:12 light/dark cycle (all work was done in a BioBubble Hood™). Water and food was provided ad libitum.
The mice were provided a high-fat, high-fructose diet for a total of 11 weeks, within the first 5 weeks the animals became obese, insulin resistant, have increased plasma cholesterol and mildly hypertensive. The mice were separated into three groups, each group consisting of 10 mice after the first 5 weeks on the high-fat, high-fructose diet. The mice continued to receive the high-fat, high-fructose diet but also began to receive treatment for the remaining 6 weeks of the study for a total of 11 weeks of study. During the treatment phase, Group 1 was administered vehicle alone, perorally, twice a day for six weeks (control group); group 2 was administered 20 mg/kg of Compound 5, perorally, twice a day for six weeks; group 3 was administered 60 mg/kg Compound 5, perorally, twice a day for six weeks. At intervals of 3 and 5.5 weeks after the beginning of the treatment phase of the study, glucose tolerance tests were administered. At the beginning of the treatment phase and after 5 weeks of dosing, samples were collected for plasma cholesterol measurements. Blood pressure was measured 3 weeks after the start of the treatment phase of the study.
HF diet with 45% fat by calorie (Research Diets, D12451)
High-Fructose (degassed 7up)
Group 2) High-Fat Diet+Compound 5-20 mg/kg p.o. (perorally) b.i.d. (twice a day)
Group 3) High-Fat Diet+Compound 5-60 mg/kg p.o. (perorally) b.i.d. (twice a day)
Throughout duration of the study body weight, food, and fructose consumption was measured twice a week. Blood pressure and heart rate was measured one week.
Mice were randomized on the basis of average Body Weight in each of the three groups (n=10/gp).
GTT—Animals were fasted for 4 hours followed by a glucose load (2 g/kG body wt). The tip (3 mm) of the tail was excised and blood samples were taken for glucose clearance measurements (Glucometer) at T=0, 15, 30, 60, 90, and 120 minutes. This test determines if the animal is has glucose intolerance.
Plasma was analyzed using a lipid and chem panel analysis (Lipid-total cholesterol, HDL, LDL and Triglycerides, FFA).
p.o. (perorally) dosing of Compound 5 at 20 mg/kg and at 60 mg/kg begins b.i.d. twice a day) for […]
Measure blood pressure using a non-invasive CODA 6 occlusion cuff system

SMILES: CC(=O)N1CCC(NC(=O)Nc2ccc(C(F)(F)F)cc2)CC1 [Compound 3, 1-[1-(acetyl)piperidin-4-yl]-3-(4-trifluoromethylphenyl) urea]
- weight gain, HF-fed animals [1]: gained less weight
- total plasma cholesterol [1]: slight elevation of total cholesterol
- glucose tolerance (GTT) [1]: statistically significant improvements in glucose tolerance
- statistical significance of attenuated weight gain [1]: statistically significant

SMILES: O=C(NC1CCCCC1)NC1CCN(C(=O)c2ccccn2)CC1 [Compound 12, 1-cyclohexyl-3-(1-picolinoylpiperidin-4-yl)urea]
- IC50 (sEH): 5.3 nM

SMILES: CC(C)S(=O)(=O)N1CCC(NC(=O)Nc2ccc(OC(F)(F)F)cc2)CC1 [Compound 13, 1-(1-(isopropylsulfonyl)piperidin-4-yl)-3-(4-(trifluoromethoxy)phenyl)urea]
- IC50 (sEH): 1.6 nM

SMILES: CS(=O)(=O)N1CCC(NC(=O)Nc2ccc(C(F)(F)F)cc2)CC1 [Compound 4, 1-[1-(methylsulfonyl)piperidin-4-yl]-3-(4-trifluoromethylphenyl) urea]
- weight gain, HF-fed animals [1]: gained less weight
- total plasma cholesterol [1]: decreases in total plasma cholesterol level, although not statistically significant
- glucose tolerance (GTT) [1]: statistically significant improvements in glucose tolerance

SMILES: CC(C)(C)CC(=O)N1CCC(NC(=O)Nc2ccc(C(F)(F)F)cc2)CC1 [Compound 7, 1-(1-(3,3-dimethylbutanoyl)piperidin-4-yl)-3-(4-(trifluoromethyl)phenyl)urea]
- IC50 (sEH): 0.8 nM

SMILES: CC(=O)N1CCC(NC(=O)Nc2cccc(C(F)(F)F)c2)CC1 [Compound 9, 1-(1-Acetyl-piperidin-4-yl)-3-(3-trifluoromethyl-phenyl)-urea]
- IC50 (sEH): 10.1 nM

SMILES: O=C(Nc1ccc(C(F)(F)F)cc1)Nc1cccc(C(=O)N2CCOCC2)c1 [Compound 1, 1-[3-(morpholino-4-carbonyl)phenyl]-3-(4-trifluoromethylphenyl) urea]
- % Inhibition (sEH; Concentration 50 nM): 82%

SMILES: CC(=O)N1CCC(NC(=O)NC23CC4CC(CC(C4)C2)C3)CC1 [Compound 2, 1-[1-(acetyl)piperidin-4-yl]-3-(adamant-1-yl) urea]
- HDL level [2]: decreased
- LDL [2]: significantly decreased
- blood glycated hemoglobin (HbA1c %) [2]: significantly decreased
- fasting plasma glucose level [2]: significantly decreased
- total cholesterol [2]: significantly decreased
- triglycerides (TGs) [2]: significantly decreased

SMILES: CCCCc1nc(Cl)c(CO)n1Cc1ccc(-c2ccccc2-c2nn[nH]n2)cc1 [Losartan, reference compound]
- weight gain, HF-fed animals [1]: gained less weight

SMILES: CS(=O)(=O)N1CCC(NC(=O)NC23CC4CC(CC(C4)C2)C3)CC1 [Compound 5, 1-[1-(methylsulfonyl)piperidin-4-yl]-3-(adamant-1-yl) urea]
- weight gain, HF-fed animals [1]: gained less weight
- total plasma cholesterol [1]: statistically significant decreases in cholesterol
- glucose tolerance (GTT) [1]: statistically significant improvements in glucose tolerance
- statistical significance of attenuated weight gain [1]: statistically significant
- body weights, animals on NC ([1]; NC diet, Compound 5 60 mg/kg twice daily vs vehicle): similar
- cholesterol level ([3]; 60 mg/kg twice a day, vs vehicle, p<0.01): statistically lower cholesterol level
- blood pressure ([3]; 60 mg/kg twice a day, vs vehicle, p<0.05): statistically significantly lower blood pressure
- heart rate ([3]; 20 and 60 mg/kg b.i.d.): did not significantly alter heart rate
- systolic and diastolic blood pressure ([3]; 20 and 60 mg/kg b.i.d., 3 weeks of treatment, vs control): reduced
- serum glucose in GTT ([3]; 20 and 60 mg/kg p.o. b.i.d., relative to control group): decrease in serum glucose
- area under the curve for plasma glucose after interperitonial glucose ([3]; both 20 and 60 mg/kg twice a day, vs vehicle and start of treatment, p<0.01): statistically lower area under the curve
- body weight ([3]; either dose (20 or 60 mg/kg p.o. b.i.d.), vs vehicle): stabilization in body weight
- plasma cholesterol levels ([3]; relative to control group, 5 weeks of dosing): reduced
- mean blood pressure ([3]; vs control group): similarly reduced

SMILES: CC(C)OC(=O)N1CCC(NC(=O)Nc2ccc(C(F)(F)F)cc2)CC1 [Compound 11, isopropyl 4-(3-(4-(trifluoro-methyl)phenyl)ureido)-piperidine-1-carboxylate]
- IC50 (sEH): 0.8 nM

Further lines, results first:

- IC50 (sEH): 3.8 nM
SMILES: O=C(Nc1ccc(C(F)(F)F)cc1)Nc1ccc(S(=O)(=O)c2ccccc2)cc1 [Compound 18, 1-(4-benzenesulfonyl-phenyl)-3-(4-trifluoromethyl-phenyl)-urea]

- IC50 (sEH): 7.1 nM
SMILES: O=C(Nc1ccc(C(F)(F)F)cc1)Nc1ccc(Oc2ccccc2)nc1 [Compound 16, 1-(6-phenoxypyridin-3-yl)-3-(4-(trifluoromethyl)phenyl)urea]

- IC50 (sEH): 6.2 nM
SMILES: CC(=O)NC1CCC(NC(=O)Nc2ccc(C(F)(F)F)cc2)CC1 (stereo not drawn) [Compound 17, N-(4-(3-(4-(trifluoromethyl)phenyl)ureido)cyclohexyl)acetamide]

- IC50 (sEH): 2.1 nM
SMILES: CC(C)OC(=O)N1CCC(NC(=O)Nc2ccc(OC(F)(F)F)cc2)CC1 [Compound 15, isopropyl 4-(3-(4-(trifluoromethoxy)phenyl)ureido)piperidine-1-carboxylate]

- IC50 (sEH): 7.5 nM
SMILES: O=C(Nc1ccc(C(F)(F)F)cc1)NC1CCN(c2ccc(C(F)(F)F)cn2)CC1 [Compound 14, 1-(4-(trifluoromethyl)-phenyl)-3-(1-(5-(trifluoromethyl)-pyridin-2-yl)piperidin-4-yl)urea]
